The source of these data is patent publication US20110124607A1, “COMPOSITION FOR REGULATION CELLULAR SENESCENCE COMPRISING LYSOPHOSPHATIDIC ACID AND INHIBITOR OF ADENYLYL CYCLASE AS ACTIVE INGREDIENTS” (priority 2008, published 2011).

Read-outs that look alike come from different tables or passages of the source.

In assay [1] the test system is senescent cells (human fibroblasts). The assay is described as follows: Cell cycle analysis by flow cytometry (S phase entry), senescent cells. In kind it is cell-based. As to conditions: 30 μM LPA, 300 μM ACI, 1, 2, 4 days. The procedure: (§1) At this time, cell numbers regarded as significant compared with that of the control were presented in (A) and (B) (p<0.001). Cell cycle in (C) was analysed by flow cytometry. The percentage of cells entered S phase was averaged of three repeated measurements (p<0.001). Young and senescent cells were treated with 30 μM of LPA, 300 μM of ACI, LPA+ACI, 10 mM of AMPKI or 10 mM of AICAR, followed by culture for 1, 2, and 4 days. To analyze cell cycle, the cells were washed with buffer twice and then the cells were centrifuged using 0.25% trypsin, followed by fixation in cold 70% ethanol. Analysis was performed by flow cytometry (Becton Dickinson FACSorter) using […] of PI containing RNase. Cell proliferation and cAMP level were increased by LPA in senescent cells (Yeo et al., 2002). The AC inhibitor (ACI) was added to reduce cAMP which had been increased by LPA. And then, cell proliferation was investigated. Cells were cultured in serum-free medium for 2 days to arrest them in G0/G1 phase. Then, the cells were treated with LPA, ACI or LPA+ACI. Total cell number was measured on day 1, day 2 and day 4, or the cells entered into S phase were counted to evaluate cell proliferation. When young cells were treated with 300 μM of ACI, cell proliferation was reduced, compared with control (FIG. 1A). […]
(A flow cytometer gives signals particle by particle.)

A further assay has as its system PKA. The assay is described as follows: PKA activity in cells. It counts as cell-based, human.
For assay [2], the system named is senescent cells (human fibroblasts). The assay is described as follows: Microscope observation of morphology of senescent cells. In kind it is cell-based. As to conditions: day 4. The procedure: In the meantime, when senescent cells were treated with ACI, p21 expression was reduced on day 2 and day 4. […] Microscope observation also confirmed that young cell like cells were increased compared with the control (untreated senescent cells are bigger in size, so that less cells can be observed under microscope, compared with treated senescent cells). […] So was cyclin D1 expression (FIG. 3B). […] Thus, when senescent cells were treated with ACI, p21 and cyclin D1 expressions were reduced and thereby DNA synthesis in senescent cell increased to induce cell proliferation.

Assay [3] relates to young cells (human fibroblasts). The assay is described as follows: Cell cycle analysis by flow cytometry (S phase entry), young cells. In kind it is cell-based. As to conditions: 30 μM LPA. The protocol: as §1
In a further assay the test system is cAMP. As to conditions: cited from earlier work.

Turning to `Nc1ncnc2c1ncn2C1CCCO1` (stereo not shown) [ACI, 9-(tetrahydro-2′-furyl)adenine], the “cell number entered into S phase” value in assay [1] was “increased”. The PKA activity result in the assay with PKA (senescent cells) and in the assay with PKA (young cells) was “completely inhibited” in each case. In addition, in assay [2], the “change of senescent cells into young cell like cells” value is reported as “most cells were changed into young cell like cells”.

As for lysophosphatidic acid [LPA], in assay [3], the S phase entry result is given as “promotion of S phase entry”. For the same molecule, the cAMP level result in the assay with cAMP (senescent cells (Yeo et al., 2002)) is given as “increased”; with cAMP (young cells (Jang et al., 2006b)), “down-regulated”.
